Experimental data taken from patent US4395969A (priority 1981, dated 1983).
Several values for one entry are separate records, joined by “and”; a condition that tells them apart may be missing. Equal values may be shown once. Read-outs that look alike come from different tables or passages of the source.

Assays:
white sucker = experiment: Static bioassay, lethal concentration to white sucker; assay type: in vivo, C. commmersoni
Protocol: (§1) Bioassays utilized water from an artesian well at Moscow, Idaho and from the headwaters of the Palouse River, also in Idaho. The chemical characteristics of the artesian water were analyzed as follows: Total hardness 67-120 mg/l; total dissolved solids, 160-175 mg/l; and pH 7.1. The chemistry of the Palouse River water was analyzed as follows: total hardness 17 mg/l; methyl orange alkalinity 26 mg/l; total dissolved solids, 32 mg/l and pH, 7.0.
(§2) Fish were acclimated to test temperatures, usually at 5, 7.5, 10, 15 and 20 degrees Celsius (C), at least 60 hours before exposure to toxicants. For fish and crayfish four water baths regulated the temperature of assay aquaria. Each water bath contained a battery of 20 identical 19-liter clear glass containers or 11.4-liter plastic aquaria lined with disposable polyethylene bags and covered with Plexiglass lids to reduce evaporation. For larger fish and large numbers of fish the bioassays were made in two temperature controlled rooms that contained a series of 700-liter circular fiberglass vats and a series of 76- and 91-liter plastic containers.
(§3) Standard bioassay techniques were used in sorting fish and conducting the tests. Fish were placed in aerated test aquaria overnight to permit fish to recover from stress due to handling and to deprive them of food. The average load varied but most bioassays were conducted with about 1 g of fish per liter of water.
(§4) Aliquots of organophosphates were dissolved in ethanol and dispensed to the aquaria to provide concentrations suitable for obtaining the LC0 and LC50 of desirable fish and the LC50 and LC100 of target fish. Control fish were conditioned in the same manner as the test fish, but no chemical was added to the control vessels during the assays. After the addition of a chemical, observations were made mainly at 3, 6, 12, 24, 48, 96, and 192 h. The weight and fork length of fish were obtained when fishes were sacrificed.
(§5) Delineation bioassays determined primarily the LC50 and LC100 of sucker and stickleback and the LC0 and LC50 of salmonids.
(§6) The statistical LC1, LC50, and LC99 were interpolated and/or extrapolated using probit graph paper to approximate the LC0, LC50, and LC100 when the latter set of values was not closely determined by single concentrations in a series.
(§7) The approximate LC50 and LC100 of the target fishes (threespine and brook sticklebacks and bridgelip and white suckers) are tabulated in Table 1. The 96-hour selectivity and safety indices of selected species of salmonids versus the three-spine stickleback are tabulated in Table 3.
(§8) Threespine stickleback, brook stickleback, bridgelip sucker, white sucker, chinook salmon, coho salmon, sockeye salmon, kokanee, Kamloops trout, cutthroat trout, and brook trout were treated with various concentrations of 2, 2, 2, 1-tetrachloroethyl diethyl phosphate and at various temperatures to determine approximate selectivity and safety indices. The approximate LC50 and LC100 of the target fishes (threespine and brook sticklebacks and bridgelip and white suckers) are tabulated in Table 5. The 96-hour selectivity and safety indices of selected species of salmonids versus the threespine stickleback are tabulated in Table 7.

[1] = Static bioassay, lethal concentration to sockeye salmon; assay type: in vivo, O. nerka; settings: sockeye salmon, in vivo
Protocol: as §1, §2, §3, §4, §5, §6, §7, §8

sockeye salmon = experiment: as above; assay type: in vivo, O. nerka
Protocol: as §1, §2, §3, §4, §5, §6, §7, §8

threespine stickleback = tested on: threespine stickleback; parameters: species or system Gasterosteus aculeatus; settings: in vivo
bridgelip sucker = experiment: Selectivity and safety indices of salmonids versus the bridgelip sucker; assay type: in vivo, Catastomus columbianus; settings: 96 h
From the text: as §5, §6, §7, §8

sucker and stickleback = settings: in vivo
suckers = experiment: Control of suckers in 24-hour applications, usable concentration; assay type: in vivo
From the text: For field applications the concentration of the dichloro- and tetrachloro-compounds would vary with water quality--mainly with regard to water temperature and hydrogen ion concentrations. Generally, treated areas would contain water low in dissolved solids and a pH of 7 to 7.5. The activity of the chemicals would then be essentially similar to that determined in our tests using river water. For the treatment of rivers and shorelines of lakes the concentrations of the dichloro- and tetrachloro-compounds that would be used would be those that would kill stickleback or suckers in 12 to 24 hours. The information above, relating to Examples 1 and 12, substantiates improvement in fish culture by the addition of dichloroethyl or dichlorovinyl diethyl phosphate to an aqueous habitat at a concentration in water ranging between 0.1 and 10 mg/l. […] The information above, relating to Example 2, substantiates improvement in fish culture by the addition of tetrachloroethyl diethyl phosphate to an aqueous habitat at a concentration in water ranging between 4 and 80 μg/l.

chinook salmon = experiment: Long-term static bioassay, chinook salmon; settings: 64 days, 10 C, individually
[2] = 10 C, individually, read-out: LC50
[3] = with 2 Cl 1:300, 10 C, read-out: LC50 in combination, 4 Cl component
[4] = with 4 Cl 300:1, 10 C, read-out: LC50 in combination, 2 Cl component

SMILES: CCOP(=O)(OCC)OC(Cl)C(Cl)(Cl)Cl (centres unmarked) [2,2,2,1-tetrachloroethyl diethyl phosphate]
- LC50 (white sucker; 15 C, 24 h): 0.004 µg/mL
- LC100 (white sucker; 15 C, 24 h): 10 µg/L
- LC50 (white sucker; 15 C, 48 h): < 0.003 µg/mL
- LC100 (white sucker; 15 C, 48 h): 10 µg/L
- LC50 at 48 h ([1]; 7.5 C): 0.05 µg/mL
- LC50 at 96 h ([1]; 7.5 C, read-out: LC50): 0.02 µg/mL
- LC50 at 192 h ([1]; 7.5 C, read-out: LC50): 0.014 µg/mL
- LC50 at 48 h ([1]; 10 C): 0.03 µg/mL
- LC50 at 96 h [1, 2]: 0.017 µg/mL
- LC50 at 192 h [1, 2]: 0.016 µg/mL
- LC50 at 96 h [1, 3]: 0.008 µg/mL
- LC50 at 192 h [1, 3]: 0.006 µg/mL
- LC0 (sockeye salmon; 7.5 C, 48 h): 36 µg/L
- LC0 (sockeye salmon; 7.5 C, 96 h): 14 µg/L
- LC0 (sockeye salmon; 7.5 C, 192 h): 10 µg/L
- LC0 (sockeye salmon; 10 C, 48 h): 20 µg/L
- LC50 (sockeye salmon; 10 C, 96 h, individually): 0.017 µg/mL
- LC0 (sockeye salmon; 10 C, 96 h, individually, listed as 2, 2, 2, 1-tetrachloroethyl diethyl phosphate): 12 µg/L and 10 µg/L
- LC0 (sockeye salmon; 10 C, 96 h, individually, listed as 4 Cl): 12 µg/L
- LC0 (sockeye salmon; 10 C, 192 h): 10 µg/L
- LC50 (sockeye salmon; 10 C, 192 h, individually, listed as 4 Cl, 11520 min): 0.015 µg/mL
- Safety index (LC0/LC100) (threespine stickleback; 5760 min): 2.3
- Safety index (LC0/LC100) (bridgelip sucker; Kamloops, 5 C): 2.4
- Selectivity index (LC50/LC50) (bridgelip sucker; Kamloops, 5 C): 4.3
- Safety index (LC0/LC100) (bridgelip sucker; Kamloops, 10 C): 1.8
- Selectivity index (LC50/LC50) (bridgelip sucker; Kamloops, 10 C): 6.0
- Safety index (LC0/LC100) (bridgelip sucker; Kamloops, 15 C): 2.1
- Selectivity index (LC50/LC50) (bridgelip sucker; Kamloops, 15 C): 6.0
- Safety index (LC0/LC100) (bridgelip sucker; brook trout, 15 C): 1.4
- Selectivity index (LC50/LC50) (bridgelip sucker; brook trout, 15 C): 5.0
- Safety index (LC0/LC100) (bridgelip sucker; chinook, 10 C): 2.4
- Selectivity index (LC50/LC50) (bridgelip sucker; chinook, 10 C): 6.3
- Safety index (LC0/LC100) (bridgelip sucker; coho, 10 C): 1.7
- Selectivity index (LC50/LC50) (bridgelip sucker; coho, 10 C): 5.8
- Safety index (LC0/LC100) (bridgelip sucker; cutthroat, 10 C): 1.7
- Selectivity index (LC50/LC50) (bridgelip sucker; cutthroat, 10 C): 4.8
- Safety index (LC0/LC100) (bridgelip sucker; cutthroat, 15 C): 2.0
- Selectivity index (LC50/LC50) (bridgelip sucker; cutthroat, 15 C): 4.5
- Safety index (LC0/LC100) (bridgelip sucker; kokanee, 15 C): 2.9
- Selectivity index (LC50/LC50) (bridgelip sucker; kokanee, 15 C): 7.5
- Safety index (LC0/LC100) (bridgelip sucker; sockeye, 10 C): 1.4
- Selectivity index (LC50/LC50) (bridgelip sucker; sockeye, 10 C): 7.5
- activity relative to the dichloro-compounds (sucker and stickleback): about 100 times
- recommended safe and effective concentration (sucker and stickleback): 20 µg/L
- estimated LC100 of the sucker (suckers; relative to 6 to 4 μg/l for stickleback, 10 C): essentially the same
- mortality (chinook salmon; 6 μg/l (or less)): Essentially no mortality
- mortality (chinook salmon; 6 μg/l (or less), listed as 2, 2, 2, 1-tetrachloroethyl diethyl phosphate): no significant mortality

SMILES: CCOP(=O)(OC=C(Cl)Cl)OCC [2,2-dichlorovinyl diethyl phosphate]
- LC50 (white sucker; 20 C, 24 h): 0.10 µg/mL
- LC50 (white sucker; 20 C, 48 h): 0.07 µg/mL
- LC50 (white sucker; 20 C, 96 h): 0.06 µg/mL
- LC100 (white sucker; 20 C, 96 h): 100 µg/L
- LC50 (white sucker; 20 C, 192 h): 0.05 µg/mL
- LC100 (white sucker; 20 C, 192 h): 100 µg/L
- LC50 at 48 h ([1]; 7.5 C): > 10 µg/mL
- LC50 at 96 h ([1]; 7.5 C, read-out: LC50): 9 µg/mL
- LC50 at 192 h ([1]; 7.5 C, read-out: LC50): 4 µg/mL
- LC50 at 48 h ([1]; 10 C): > 8 µg/mL
- LC50 at 96 h [1, 2]: 6 µg/mL
- LC50 at 96 h ([1]; 10 C, read-out: LC50): 6 µg/mL
- LC50 at 192 h [1, 2]: 3.6 µg/mL
- LC50 at 192 h ([1]; 10 C, read-out: LC50): 3.4 µg/mL
- LC50 at 96 h [1, 4]: 2.4 µg/mL
- LC50 at 192 h [1, 4]: 1.8 µg/mL
- LC0 (sockeye salmon; 7.5 C, 48 h): > 10000 µg/L
- LC0 (sockeye salmon; 7.5 C, 96 h): 6000 µg/L
- LC0 (sockeye salmon; 7.5 C, 192 h): 2000 µg/L
- LC0 (sockeye salmon; 10 C, 48 h): 6000 µg/L
- LC0 (sockeye salmon; 10 C, 96 h): 3000 µg/L
- LC0 (sockeye salmon; 10 C, 96 h, individually, listed as 2, 2-dichlorovinyl diethyl phosphate): 3000 µg/L
- LC0 (sockeye salmon; 10 C, 96 h, individually, listed as 2 Cl): 3600 µg/L
- LC0 (sockeye salmon; 10 C, 192 h): 2000 µg/L
- Selectivity index (LC50/LC50) (threespine stickleback): 5.7
- Safety index (LC0/LC100) (bridgelip sucker; Kamloops, 5 C): 7
- Selectivity index (LC50/LC50) (bridgelip sucker; Kamloops, 5 C): > 34
- Safety index (LC0/LC100) (bridgelip sucker; Kamloops, 10 C): 20
- Selectivity index (LC50/LC50) (bridgelip sucker; Kamloops, 10 C): 67
- Safety index (LC0/LC100) (bridgelip sucker; Kamloops, 15 C): 10
- Selectivity index (LC50/LC50) (bridgelip sucker; Kamloops, 15 C): 70
- Safety index (LC0/LC100) (bridgelip sucker; brook trout, 15 C): 20
- Selectivity index (LC50/LC50) (bridgelip sucker; brook trout, 15 C): 66
- Safety index (LC0/LC100) (bridgelip sucker; chinook, 10 C): 60
- Selectivity index (LC50/LC50) (bridgelip sucker; chinook, 10 C): 87
- Safety index (LC0/LC100) (bridgelip sucker; chinook, 15 C): 27
- Selectivity index (LC50/LC50) (bridgelip sucker; chinook, 15 C): 68
- Safety index (LC0/LC100) (bridgelip sucker; cutthroat, 10 C): 40
- Selectivity index (LC50/LC50) (bridgelip sucker; cutthroat, 10 C): > 60
- Safety index (LC0/LC100) (bridgelip sucker; cutthroat, 15 C): 20
- Selectivity index (LC50/LC50) (bridgelip sucker; cutthroat, 15 C): 50
- Safety index (LC0/LC100) (bridgelip sucker; sockeye, 7.5 C): 30
- Selectivity index (LC50/LC50) (bridgelip sucker; sockeye, 7.5 C): 100
- Safety index (LC0/LC100) (bridgelip sucker; sockeye, 10 C): 30
- Selectivity index (LC50/LC50) (bridgelip sucker; sockeye, 10 C): 75
- Safety index (LC0/LC100) (bridgelip sucker; steelhead, 5 C): 13
- Selectivity index (LC50/LC50) (bridgelip sucker; steelhead, 5 C): 47
- potency for suckers relative to stickleback (sucker and stickleback): about 10 times
- recommended safe and effective concentration (suckers; 10 to 15 C, river water tests): 1.0 mg/L
- mortality (chinook salmon; 300 μg/l): essentially no mortality
- mortality (chinook salmon; 300 μg/l, listed as 2, 2-dichlorovinyl diethyl phosphate): no significant mortality
